Reference: patent US11395829B2, “Inhibitors of metallo-beta-lactamases produced by multidrug-resistant bacteria” (MYONGJI UNIVERSITY INDUSTRY AND ACADEMIA COOPERATION …, priority 2019, dated 2022)
Like-named read-outs stand apart in the source and are kept apart here.

Columns and labels:
Assay type in all cases: biochemical
[1] = molecular target: NDM-1 (Klebsiella pneumoniae, UniProt C7C422); test: NDM-1 inhibition assay with nitrocefin as substrate
Protocol: The screened seven compounds were dissolved in 100% DMSO at 10 mM. More diluted stocks were prepared as necessary. NDM-1 activity was determined by monitoring the change of absorbance at 482 nm using the characteristic molecular extinction coefficient (Δε482=15,900 M^−1 cm^−1) of nitrocefin (NCF) (Oxoid, Hampshire, UK) by a Shimazu UV-1650PC spectrophotometer. Up to 5% DMSO, no influence on the enzyme activities of MBLs was observed. The assays were conducted in 50 mM MES (pH 7.0) containing an enzyme (263 nM), 100 μM ZnCl2, and 100 μg/mL bovine serum albumin. After 5 min of pre-incubation of the purified enzyme and inhibitor at 30° C., the enzymatic reaction was started by adding nitrocefin (100 μM). Residual velocities were determined after 5 minutes. The first 120 s of each reaction was used to measure initial rates. Data were evaluated using Microsoft Excel. Concentration-dependent inhibition of NDM-1 was measured using different concentrations of seven compounds resulting from two-fold dilution series. Reaction progress at every concentration of seven compounds was measured in triplicates. IC50 values were calculated using 4-parameter log fits using XL Fit curve fitting software (www.idbs.com) for Excel using the following equation: […]
where y is the remaining enzyme activity (in %) and x is the corresponding concentration. The fitted IC50 parameter is defined as the concentration giving a response half way between the fitted top (B) and bottom (A) of the curve. […]
To investigate the inhibitory effects of novel compounds (DCPBA, ACP-DCPBA, and CHP-DCPBA) against four clinically-important subclass B1 MBLs (NDM-1, IMP-1, VIM-2, and GIM-1), subclass B2 MBL (CphA), and subclass B3 MBL (GOB-1), the IC50 values for them were determined (Table 4). […] Activities of MBLs were determined by monitoring the change of absorbance at 482 nm. […] Data were evaluated using Microsoft Excel. Reaction progress at every concentration of DCPBA (ACP-DCPBA or CHP-DCPBA) was measured in triplicates.

[2] = molecular target: GIM-1 (Pseudomonas aeruginosa, UniProt Q704V1); test: GIM-1 inhibition assay with nitrocefin as substrate
From the text: (§1) The blaNDM-1 gene (GenBank ID: FN396876) from K. pneumoniae clinical isolate, blaIMP-1 gene (GenBank ID: S71932) from Acinetobacter baumannii clinical isolate, and blaVIM-2 gene (GenBank ID: AF191564) from Citrobacter freundii clinical isolate were cloned after PCR amplification with primer pairs (Table 3) and then sequenced. Those three clinical isolates were collected from a university hospital in the Republic of Korea. Three DNA templates encoding blaGIM-1 gene (GenBank ID: AJ620678), blacphA gene (GenBank ID: X57102), and blaGOB-1 gene (GenBank ID: AF090141), which are codon optimized for E. coli, were synthesized and purchased from IDT (Integrated DNA Technologies, Coralville, Iowa, USA). The DNA templates were amplified by PCR using suitable primer pairs (Table 3). The amplified DNA and pET-30a(+) vector (Novagen, Madison, Wis., USA) were double-digested with NdeI and XhoI, with digested DNA then ligated into the digested vector. After verifying the DNA sequences, the plasmids, pET-30a(+)/His6-blaNDM-1, pET-30a(+)/His6-blaIMP-1, pET-30a(+)/His6-blaVIM-2, pET-30a(+)/His6-blaGIM-1, pET-30a(+)/His6-blacphA, and pET-30a(+)/His6-blaGOB-1 were individually transformed into E. coli BL21 (DE3) cells. Each of the histidine-tagged proteins, NDM-1, IMP-1, VIM-2, GIM-1, CphA, and GOB-1 were prepared as previously described (Park, et al., J. Glob. Antimicrob. Resist., 14, 302-305 (2018)).
(§2) To investigate the inhibitory effects of novel compounds (DCPBA, ACP-DCPBA, and CHP-DCPBA) against four clinically-important subclass B1 MBLs (NDM-1, IMP-1, VIM-2, and GIM-1), subclass B2 MBL (CphA), and subclass B3 MBL (GOB-1), the IC50 values for them were determined (Table 4). Compounds (DCPBA, ACP-DCPBA, and CHP-DCPBA) were dissolved in 100% DMSO at 10 mM. Activities of MBLs were determined by monitoring the change of absorbance at 482 nm. Up to 5% DMSO, no influence on the enzyme activities of MBLs was observed. […] Data were evaluated using Microsoft Excel. Reaction progress at every concentration of DCPBA (ACP-DCPBA or CHP-DCPBA) was measured in triplicates.

[3] = molecular target: VIM-2 (Pseudomonas aeruginosa, UniProt Q9K2N0); test: VIM-2 inhibition assay with nitrocefin as substrate
From the text: as §1, §2

[4] = molecular target: GOB-1 (Elizabethkingia meningoseptica, UniProt Q9RB00); test: GOB-1 inhibition assay with nitrocefin as substrate; settings: Subclass B3 MBL, enzyme 2.69 μM, 100 μM nitrocefin, 5 minute pre-incubation
From the text: as §1, §2

[5] = molecular target: IMP-1 (Serratia marcescens, UniProt P52699); test: IMP-1 inhibition assay with nitrocefin as substrate; settings: Subclass B1 MBL, enzyme 891 nM, 100 μM nitrocefin, 5 minute pre-incubation
From the text: as §1, §2

[6] = molecular target: CphA (Aeromonas hydrophila, UniProt P26918); test: CphA inhibition assay with nitrocefin as substrate; settings: for IC50 of CphA relative to that for DCPBA: fold lower than DCPBA
From the text: as §1
To investigate the inhibitory effects of novel compounds (DCPBA, ACP-DCPBA, and CHP-DCPBA) against four clinically-important subclass B1 MBLs (NDM-1, IMP-1, VIM-2, and GIM-1), subclass B2 MBL (CphA), and subclass B3 MBL (GOB-1), the IC50 values for them were determined (Table 4). Compounds (DCPBA, ACP-DCPBA, and CHP-DCPBA) were dissolved in 100% DMSO at 10 mM. Activities of MBLs were determined by monitoring the change of absorbance at 482 nm. Up to 5% DMSO, no influence on the enzyme activities of MBLs was observed. Each enzyme (NDM-1, 263 nM; IMP-1, 891 nM; VIM-2, 81 nM; GIM-1, 662 nM; CphA, 157 nM; GOB-1, 2.69 μM) was mixed with 100 μM nitrocefin after a 5 minute pre-incubation with compounds (DCPBA, ACP-DCPBA, and CHP-DCPBA). The first 120 s of each reaction was used to measure initial rates. Data were evaluated using Microsoft Excel. Reaction progress at every concentration of DCPBA (ACP-DCPBA or CHP-DCPBA) was measured in triplicates.

[7] = Subclass B1 MBL, enzyme 263 nM, 100 μM nitrocefin, 5 minute pre-incubation, read-out: IC50 NDM-1

IMP-1, sequence (P52699 21-246 limits assumed): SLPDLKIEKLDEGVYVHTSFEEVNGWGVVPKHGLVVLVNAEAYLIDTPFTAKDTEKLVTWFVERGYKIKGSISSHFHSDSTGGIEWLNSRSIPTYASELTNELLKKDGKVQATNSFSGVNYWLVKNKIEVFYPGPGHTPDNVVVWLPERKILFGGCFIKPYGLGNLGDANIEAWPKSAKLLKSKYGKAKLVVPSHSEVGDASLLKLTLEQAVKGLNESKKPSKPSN
GOB-1, sequence (Q9RB00 entry or part of it): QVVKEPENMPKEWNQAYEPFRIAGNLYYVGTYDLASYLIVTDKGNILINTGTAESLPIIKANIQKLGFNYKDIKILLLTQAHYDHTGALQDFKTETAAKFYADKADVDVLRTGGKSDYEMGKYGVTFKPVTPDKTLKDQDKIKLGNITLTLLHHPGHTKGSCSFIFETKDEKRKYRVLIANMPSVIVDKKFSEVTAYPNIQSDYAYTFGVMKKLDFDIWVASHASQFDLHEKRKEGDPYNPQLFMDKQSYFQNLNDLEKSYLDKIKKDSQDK
CphA, sequence (P26918 28-254): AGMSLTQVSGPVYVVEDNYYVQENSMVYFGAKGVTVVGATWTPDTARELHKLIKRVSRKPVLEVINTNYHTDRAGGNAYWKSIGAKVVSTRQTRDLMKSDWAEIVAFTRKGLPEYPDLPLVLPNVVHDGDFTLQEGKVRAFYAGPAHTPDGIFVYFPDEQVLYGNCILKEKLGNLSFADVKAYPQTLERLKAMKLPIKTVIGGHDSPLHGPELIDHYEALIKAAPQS
NDM-1, sequence (C7C422 30-270 limits assumed, looked up): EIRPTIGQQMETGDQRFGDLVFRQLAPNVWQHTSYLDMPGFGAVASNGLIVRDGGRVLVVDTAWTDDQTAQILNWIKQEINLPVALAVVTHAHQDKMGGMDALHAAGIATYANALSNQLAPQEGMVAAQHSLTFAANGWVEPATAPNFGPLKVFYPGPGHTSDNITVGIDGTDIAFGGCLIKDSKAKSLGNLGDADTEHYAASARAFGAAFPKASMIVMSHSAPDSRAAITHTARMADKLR
GIM-1, sequence (Q704V1 19-250): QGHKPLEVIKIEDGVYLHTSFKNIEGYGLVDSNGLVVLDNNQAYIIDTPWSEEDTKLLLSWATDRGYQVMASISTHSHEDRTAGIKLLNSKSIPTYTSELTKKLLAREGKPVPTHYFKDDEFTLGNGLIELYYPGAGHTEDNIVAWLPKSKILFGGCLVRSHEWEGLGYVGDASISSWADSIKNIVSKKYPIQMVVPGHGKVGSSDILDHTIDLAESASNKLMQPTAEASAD

OB(O)c1cc(Cl)c(Oc2ccc(Cl)cc2O)c(Cl)c1 [CHP-DCPBA, (3,5-dichloro-4-(4-chloro-2-hydroxyphenoxy)phenyl)boronic acid]
IC50 [1, 7]: 37.77 ± 0.01 µM
IC50 ([2]; Subclass B1 MBL, enzyme 662 nM, 100 μM nitrocefin, 5 minute pre-incubation, read-out: IC50 GIM-1): 81.35 ± 0.03 µM
IC50 [3]: 15.15 ± 0.01 µM
IC50 [4]: 468.5 ± 0.01 µM
IC50 [5]: 468.3 ± 0.01 µM
IC50 ([6]; Subclass B2 MBL, enzyme 157 nM, 100 μM nitrocefin, 5 minute pre-incubation, read-out: IC50 CphA): 80.81 ± 0.01 µM
IC50 of CphA relative to that for DCPBA [6]: six-fold lower

Nc1ccc(Oc2c(Cl)cc(B(O)O)cc2Cl)cc1Cl [ACP-DCPBA, (4-(4-amino-3-chlorophenoxy)-3,5-dichlorophenyl)boronic Acid]
IC50 [1, 7]: 78.78 ± 0.01 µM
IC50 [2]: 144.64 ± 0.01 µM
IC50 [3]: 22.78 ± 0.01 µM
IC50 [4]: 790.24 ± 0.02 µM
IC50 [5]: 738.41 ± 0.01 µM
IC50 [6]: 90.19 ± 0.01 µM
IC50 of CphA relative to that for DCPBA [6]: six-fold lower

OB(O)c1cc(Cl)cc(Cl)c1 [Compound 1, 3,5-Dichlorophenylboronic Acid]
IC50 ([1]; NDM-1 263 nM, nitrocefin 100 μM, 50 mM MES pH 7.0, 5 min pre-incubation at 30° C., read-out: IC50 values on NDM-1 of the screened compounds): 79.9 µM
IC50 [2]: 144.64 ± 0.01 µM
IC50 [3]: 27.33 ± 0.01 µM
IC50 [4]: 798.9 ± 0.02 µM
IC50 [5]: 738.88 ± 0.01 µM
IC50 [6]: 530.87 ± 0.02 µM
